# Key:
# [1] = molecular target: Serine/threonine-protein kinase STK11 (Homo sapiens) (UniProt Q15831); experiment: Inhibition of LKB1 Lys2 labeling site in human HEL cell lysate at 10 uM by KiNativ profiling analysis relative to control; type: subcellular
# [2] = molecular target: Tyrosine-protein kinase ABL1 (Homo sapiens) (UniProt P00519); experiment: Inhibition of T7 bacteriophage fused human nonphosphorylated ABL1 at 10 uM by KINOMEscan analysis relative to control
# [3] = molecular target: Cyclin-dependent kinase 3 (Homo sapiens) (UniProt Q00526); experiment: Inhibition of T7 bacteriophage fused human CDK3 at 10 uM by KINOMEscan analysis relative to control
# [4] = molecular target: Serine/threonine-protein kinase Chk1 (Homo sapiens) (UniProt O14757); experiment: Inhibition of T7 bacteriophage fused human CHEK1 at 10 uM by KINOMEscan analysis relative to control
# Chain of Serine/threonine-protein kinase Chk1 (Homo sapiens) (O14757 whole entry, the tested form may be a part): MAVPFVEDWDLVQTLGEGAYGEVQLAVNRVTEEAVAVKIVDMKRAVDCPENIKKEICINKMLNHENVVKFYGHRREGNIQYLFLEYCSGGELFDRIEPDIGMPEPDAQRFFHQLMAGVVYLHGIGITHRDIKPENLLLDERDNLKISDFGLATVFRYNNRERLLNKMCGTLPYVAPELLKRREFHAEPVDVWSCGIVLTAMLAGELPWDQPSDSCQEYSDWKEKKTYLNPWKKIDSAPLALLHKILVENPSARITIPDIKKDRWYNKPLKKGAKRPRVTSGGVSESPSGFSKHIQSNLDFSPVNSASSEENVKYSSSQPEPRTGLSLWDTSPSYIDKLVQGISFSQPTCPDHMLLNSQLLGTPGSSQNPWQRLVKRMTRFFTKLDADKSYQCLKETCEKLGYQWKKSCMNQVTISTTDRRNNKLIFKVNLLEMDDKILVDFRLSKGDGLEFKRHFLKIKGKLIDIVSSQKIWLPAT
# [5] = system: Receptor-type tyrosine-protein kinase FLT3 (Homo sapiens), P36888 [D835H]; experiment: Inhibition of T7 bacteriophage fused human FLT3 D835H mutant at 10 uM by KINOMEscan analysis relative to control
# [6] = system: Receptor-type tyrosine-protein kinase FLT3 (Homo sapiens), P36888 [K663Q]; experiment: Inhibition of T7 bacteriophage fused human FLT3 K663Q mutant at 10 uM by KINOMEscan analysis relative to control
# [7] = molecular target: Rhodopsin kinase GRK7 (Homo sapiens) (UniProt Q8WTQ7); experiment: Inhibition of T7 bacteriophage fused human GRK7 at 10 uM by KINOMEscan analysis relative to control
# Chain of Rhodopsin kinase GRK7 (Homo sapiens) (Q8WTQ7 whole entry, the tested form may be a part): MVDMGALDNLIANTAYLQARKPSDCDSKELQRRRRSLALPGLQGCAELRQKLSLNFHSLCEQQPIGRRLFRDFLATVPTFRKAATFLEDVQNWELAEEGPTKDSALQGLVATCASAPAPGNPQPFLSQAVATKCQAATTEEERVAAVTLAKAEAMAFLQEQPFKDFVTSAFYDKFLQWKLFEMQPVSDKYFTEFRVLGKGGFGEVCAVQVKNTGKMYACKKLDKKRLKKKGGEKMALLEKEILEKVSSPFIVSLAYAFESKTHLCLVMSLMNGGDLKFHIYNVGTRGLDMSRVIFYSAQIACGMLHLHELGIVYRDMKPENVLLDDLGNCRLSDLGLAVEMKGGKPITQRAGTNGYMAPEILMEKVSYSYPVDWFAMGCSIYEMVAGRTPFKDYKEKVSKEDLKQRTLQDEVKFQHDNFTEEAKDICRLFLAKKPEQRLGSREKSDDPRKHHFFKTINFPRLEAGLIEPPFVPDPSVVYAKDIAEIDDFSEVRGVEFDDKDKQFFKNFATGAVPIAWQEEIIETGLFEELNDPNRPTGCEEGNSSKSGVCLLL
# [8] = molecular target: Mitogen-activated protein kinase kinase kinase kinase 1 (Homo sapiens) (UniProt Q92918); experiment: Inhibition of T7 bacteriophage fused human HPK1 at 10 uM by KINOMEscan analysis relative to control
# [9] = molecular target: Tyrosine-protein kinase JAK3 (Homo sapiens) (UniProt P52333); experiment: Inhibition of T7 bacteriophage fused human JAK3 JH1catalytic domain at 10 uM by KINOMEscan analysis relative to control
# [10] = molecular target: Mitogen-activated protein kinase kinase kinase kinase 2 (Homo sapiens) (UniProt Q12851); experiment: Inhibition of T7 bacteriophage fused human MAP4K2 at 10 uM by KINOMEscan analysis relative to control
# Chain of Mitogen-activated protein kinase kinase kinase kinase 2 (Homo sapiens) (Q12851 whole entry, the tested form may be a part): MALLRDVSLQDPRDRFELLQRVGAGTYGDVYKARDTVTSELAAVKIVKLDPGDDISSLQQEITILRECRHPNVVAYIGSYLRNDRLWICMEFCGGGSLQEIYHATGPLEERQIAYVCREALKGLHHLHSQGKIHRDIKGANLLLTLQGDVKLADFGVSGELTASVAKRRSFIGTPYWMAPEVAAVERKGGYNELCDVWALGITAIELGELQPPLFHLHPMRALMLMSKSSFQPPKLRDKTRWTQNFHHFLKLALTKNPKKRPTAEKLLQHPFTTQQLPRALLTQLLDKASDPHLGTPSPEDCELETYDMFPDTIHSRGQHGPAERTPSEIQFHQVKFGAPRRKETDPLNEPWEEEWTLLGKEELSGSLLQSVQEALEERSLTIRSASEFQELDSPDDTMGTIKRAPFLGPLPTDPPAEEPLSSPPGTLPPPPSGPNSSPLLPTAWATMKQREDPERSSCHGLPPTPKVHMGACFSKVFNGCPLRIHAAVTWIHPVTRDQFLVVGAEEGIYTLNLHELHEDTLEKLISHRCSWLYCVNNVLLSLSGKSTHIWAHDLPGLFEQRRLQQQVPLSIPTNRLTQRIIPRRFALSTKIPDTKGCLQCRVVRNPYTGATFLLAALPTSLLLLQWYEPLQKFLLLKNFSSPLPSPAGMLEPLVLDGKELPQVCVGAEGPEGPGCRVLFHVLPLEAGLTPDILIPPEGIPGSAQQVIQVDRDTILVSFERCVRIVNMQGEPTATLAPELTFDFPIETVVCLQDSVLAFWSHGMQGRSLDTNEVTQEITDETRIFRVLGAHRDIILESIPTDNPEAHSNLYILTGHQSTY
# [11] = molecular target: Serine/threonine-protein kinase pim-3 (Homo sapiens) (UniProt Q86V86); experiment: Inhibition of T7 bacteriophage fused human PIM3 at 10 uM by KINOMEscan analysis relative to control
# [12] = molecular target: Phosphatidylinositol 4-phosphate 5-kinase type-1 alpha (Homo sapiens) (UniProt Q99755); experiment: Inhibition of T7 bacteriophage fused human PIP5K1A at 10 uM by KINOMEscan analysis relative to control
# [13] = molecular target: Phosphatidylinositol 5-phosphate 4-kinase type-2 gamma (Homo sapiens) (UniProt Q8TBX8); experiment: Inhibition of T7 bacteriophage fused human PIP5K2C at 10 uM by KINOMEscan analysis relative to control
# [14] = molecular target: Serine/threonine-protein kinase PknB (Mycobacterium tuberculosis) (UniProt P9WI81); experiment: Inhibition of T7 bacteriophage fused […] tuberculosis PKNB at 10 uM by KINOMEscan analysis relative to control
# [15] = molecular target: Serine/threonine-protein kinase PLK3 (Homo sapiens) (UniProt Q9H4B4); experiment: Inhibition of T7 bacteriophage fused human PLK3 at 10 uM by KINOMEscan analysis relative to control
# [16] = molecular target: Protein kinase C epsilon type (Homo sapiens) (UniProt Q02156); experiment: Inhibition of T7 bacteriophage fused human PRKCE at 10 uM by KINOMEscan analysis relative to control
# [17] = system: Proto-oncogene tyrosine-protein kinase receptor Ret (Homo sapiens), P07949 [V804M]; experiment: Inhibition of T7 bacteriophage fused human RET V804M mutant at 10 uM by KINOMEscan analysis relative to control
# [18] = molecular target: Ribosomal protein S6 kinase alpha-2 (Homo sapiens) (UniProt Q15349); experiment: Inhibition of T7 bacteriophage fused human C-terminal RSK3 Kinase domain-2 at 10 uM by KINOMEscan analysis relative to control
# [19] = molecular target: Serine/threonine-protein kinase 36 (Homo sapiens) (UniProt Q9NRP7); experiment: Inhibition of T7 bacteriophage fused human STK36 at 10 uM by KINOMEscan analysis relative to control
# [20] = molecular target: Serine/threonine-protein kinase 25 (Homo sapiens) (UniProt O00506); experiment: Inhibition of T7 bacteriophage fused human YSK1 at 10 uM by KINOMEscan analysis relative to control
# Chain of Serine/threonine-protein kinase 25 (Homo sapiens) (O00506 whole entry, looked up, the tested form may be a part): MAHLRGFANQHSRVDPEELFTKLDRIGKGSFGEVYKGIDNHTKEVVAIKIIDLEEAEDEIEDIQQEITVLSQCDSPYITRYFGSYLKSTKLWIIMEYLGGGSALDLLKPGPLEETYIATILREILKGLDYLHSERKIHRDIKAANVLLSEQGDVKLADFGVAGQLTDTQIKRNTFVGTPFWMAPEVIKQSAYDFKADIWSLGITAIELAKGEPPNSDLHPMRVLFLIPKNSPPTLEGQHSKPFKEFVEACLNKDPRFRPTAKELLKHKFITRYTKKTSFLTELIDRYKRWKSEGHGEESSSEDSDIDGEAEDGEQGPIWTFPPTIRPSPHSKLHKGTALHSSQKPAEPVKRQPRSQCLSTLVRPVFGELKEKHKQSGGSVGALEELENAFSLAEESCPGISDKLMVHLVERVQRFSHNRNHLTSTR
# [21] = molecular target: Tyrosine-protein kinase Fgr (Homo sapiens) (UniProt P09769); experiment: Inhibition of T7 bacteriophage fused human FGR at 10 uM by KINOMEscan analysis relative to control; values are per cent of control
# [22] = molecular target: Epidermal growth factor receptor (Homo sapiens) (UniProt P00533); experiment: Inhibition of T7 bacteriophage fused human EGFR at 10 uM by KINOMEscan analysis relative to control; values are per cent of control
# [23] = molecular target: Mitogen-activated protein kinase kinase kinase 9 (Homo sapiens) (UniProt P80192); experiment: Inhibition of T7 bacteriophage fused human MLK1 at 10 uM by KINOMEscan analysis relative to control; values are per cent of control
# [24] = molecular target: Death-associated protein kinase 3 (Homo sapiens) (UniProt O43293); experiment: Inhibition of T7 bacteriophage fused human DAPK3 at 10 uM by KINOMEscan analysis relative to control; values are per cent of control
# [25] = molecular target: Casein kinase II subunit alpha' (Homo sapiens) (UniProt P19784); experiment: Inhibition of T7 bacteriophage fused human CSNK2A2 at 10 uM by KINOMEscan analysis relative to control; values are per cent of control
# [26] = molecular target: Mitogen-activated protein kinase kinase kinase 15 (Homo sapiens) (UniProt Q6ZN16); experiment: Inhibition of T7 bacteriophage fused human MAP3K15 at 10 uM by KINOMEscan analysis relative to control; values are per cent of control
# [27] = system: Epidermal growth factor receptor (Homo sapiens), P00533 [UNDEFINED MUTATION]; experiment: Inhibition of T7 bacteriophage fused human EGFR E746/A750del mutant at 10 uM by KINOMEscan analysis relative to control; values are per cent of control
# Chain of Epidermal growth factor receptor (Homo sapiens), P00533 [UNDEFINED MUTATION] (P00533 whole entry, looked up, stated change not applied, the tested form may be a part): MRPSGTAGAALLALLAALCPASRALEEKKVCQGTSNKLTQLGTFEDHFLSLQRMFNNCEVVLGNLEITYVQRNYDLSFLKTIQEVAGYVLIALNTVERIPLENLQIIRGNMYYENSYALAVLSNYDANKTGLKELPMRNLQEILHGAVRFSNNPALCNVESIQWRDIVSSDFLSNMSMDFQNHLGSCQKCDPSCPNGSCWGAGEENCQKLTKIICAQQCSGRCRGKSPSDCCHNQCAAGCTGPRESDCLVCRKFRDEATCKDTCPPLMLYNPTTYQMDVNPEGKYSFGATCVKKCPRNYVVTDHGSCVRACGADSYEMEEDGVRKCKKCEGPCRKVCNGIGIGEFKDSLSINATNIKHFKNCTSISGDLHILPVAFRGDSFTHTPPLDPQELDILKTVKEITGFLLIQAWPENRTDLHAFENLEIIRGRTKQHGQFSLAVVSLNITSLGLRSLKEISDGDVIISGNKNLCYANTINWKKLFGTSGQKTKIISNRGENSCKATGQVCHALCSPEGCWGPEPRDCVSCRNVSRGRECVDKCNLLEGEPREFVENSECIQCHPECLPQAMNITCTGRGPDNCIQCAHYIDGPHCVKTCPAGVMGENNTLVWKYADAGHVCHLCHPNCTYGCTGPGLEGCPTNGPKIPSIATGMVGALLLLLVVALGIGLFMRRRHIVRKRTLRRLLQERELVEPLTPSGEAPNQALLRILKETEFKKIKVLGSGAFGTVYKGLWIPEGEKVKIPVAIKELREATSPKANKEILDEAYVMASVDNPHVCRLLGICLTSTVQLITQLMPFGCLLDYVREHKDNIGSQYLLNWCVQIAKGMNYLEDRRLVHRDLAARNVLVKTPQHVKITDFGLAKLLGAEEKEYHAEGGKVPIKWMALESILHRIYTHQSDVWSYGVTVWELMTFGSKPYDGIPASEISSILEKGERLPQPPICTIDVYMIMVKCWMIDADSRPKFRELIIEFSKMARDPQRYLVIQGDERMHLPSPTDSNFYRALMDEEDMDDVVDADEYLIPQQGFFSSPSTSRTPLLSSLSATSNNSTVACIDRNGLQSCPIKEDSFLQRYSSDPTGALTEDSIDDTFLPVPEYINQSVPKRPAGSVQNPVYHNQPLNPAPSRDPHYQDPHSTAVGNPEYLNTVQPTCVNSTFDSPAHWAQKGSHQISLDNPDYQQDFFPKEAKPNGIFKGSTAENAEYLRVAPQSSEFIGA
# [28] = molecular target: Tyrosine-protein kinase JAK2 (Homo sapiens) (UniProt O60674); experiment: Inhibition of T7 bacteriophage fused human JAK2 JH1catalytic domain at 10 uM by KINOMEscan analysis relative to control; values are per cent of control
# Chain of Tyrosine-protein kinase JAK2 (Homo sapiens) (O60674 whole entry, the tested form may be a part): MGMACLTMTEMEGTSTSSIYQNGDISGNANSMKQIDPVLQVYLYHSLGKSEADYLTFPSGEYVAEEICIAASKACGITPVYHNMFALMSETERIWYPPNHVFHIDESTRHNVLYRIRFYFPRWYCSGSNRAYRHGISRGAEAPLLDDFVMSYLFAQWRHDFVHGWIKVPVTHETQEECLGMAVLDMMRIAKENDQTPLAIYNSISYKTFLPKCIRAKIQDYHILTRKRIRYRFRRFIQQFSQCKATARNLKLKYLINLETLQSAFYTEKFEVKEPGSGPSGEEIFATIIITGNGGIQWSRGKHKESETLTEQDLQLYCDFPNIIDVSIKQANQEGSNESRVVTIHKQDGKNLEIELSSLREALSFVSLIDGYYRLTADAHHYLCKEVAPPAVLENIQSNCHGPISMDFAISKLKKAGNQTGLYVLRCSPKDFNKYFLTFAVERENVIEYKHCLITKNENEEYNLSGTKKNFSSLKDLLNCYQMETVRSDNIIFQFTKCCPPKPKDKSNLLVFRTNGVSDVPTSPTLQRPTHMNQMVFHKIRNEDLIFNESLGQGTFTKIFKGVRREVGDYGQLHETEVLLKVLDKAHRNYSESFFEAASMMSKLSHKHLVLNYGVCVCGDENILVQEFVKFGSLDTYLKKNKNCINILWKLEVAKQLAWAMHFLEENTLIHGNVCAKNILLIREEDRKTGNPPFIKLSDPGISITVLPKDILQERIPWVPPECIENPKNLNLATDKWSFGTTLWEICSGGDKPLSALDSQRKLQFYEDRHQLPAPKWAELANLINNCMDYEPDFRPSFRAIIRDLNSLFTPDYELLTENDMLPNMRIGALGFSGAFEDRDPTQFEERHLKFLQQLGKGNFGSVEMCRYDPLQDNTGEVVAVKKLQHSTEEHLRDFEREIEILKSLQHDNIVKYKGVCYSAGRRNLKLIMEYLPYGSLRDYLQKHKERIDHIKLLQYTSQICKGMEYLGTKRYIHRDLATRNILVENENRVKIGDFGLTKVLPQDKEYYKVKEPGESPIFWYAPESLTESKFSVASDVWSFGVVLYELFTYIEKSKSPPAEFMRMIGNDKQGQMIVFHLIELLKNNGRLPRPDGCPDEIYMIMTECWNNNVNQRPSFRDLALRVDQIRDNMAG
# [29] = system: Epidermal growth factor receptor (Homo sapiens), P00533 [UNDEFINED MUTATION]; experiment: Inhibition of T7 bacteriophage fused human EGFR L747/S752del/P753S mutant at 10 uM by KINOMEscan analysis relative to control; values are per cent of control
# Chain of Serine/threonine-protein kinase STK11 (Homo sapiens) (Q15831 whole entry, the tested form may be a part): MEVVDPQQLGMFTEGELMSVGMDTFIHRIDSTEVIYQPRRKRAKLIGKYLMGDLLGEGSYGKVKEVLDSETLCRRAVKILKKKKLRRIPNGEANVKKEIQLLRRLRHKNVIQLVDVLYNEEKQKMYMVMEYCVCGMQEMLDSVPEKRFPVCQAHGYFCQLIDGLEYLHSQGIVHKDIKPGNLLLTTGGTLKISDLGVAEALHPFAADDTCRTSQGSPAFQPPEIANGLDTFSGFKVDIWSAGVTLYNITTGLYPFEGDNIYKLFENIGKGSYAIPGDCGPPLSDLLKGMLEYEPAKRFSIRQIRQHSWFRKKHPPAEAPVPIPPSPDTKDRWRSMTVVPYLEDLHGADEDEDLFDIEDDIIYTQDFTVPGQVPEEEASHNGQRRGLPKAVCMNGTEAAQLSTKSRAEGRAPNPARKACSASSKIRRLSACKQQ
compound,measurement,setting,value
COc1cc(C(=O)N2CCC(N3CCN(C)CC3)CC2)ccc1Nc1ncc2c(n1)N(C1CCCC1)c1ccccc1C(=O)N2C,inhibition,[1],-0.3%
COc1cc(N2CCC(N3CCN(C)CC3)CC2)ccc1Nc1ncc2c(n1)N(C)c1ccccc1C(=O)N2C,inhibition,[2],100%
same,inhibition,[3],100%
same,inhibition,[4],100%
same,inhibition,[5],100%
same,inhibition,[6],97%
same,inhibition,[7],100%
same,inhibition,[8],100%
same,inhibition,[9],100%
same,inhibition,[10],100%
same,inhibition,[11],88%
same,inhibition,[12],90%
same,inhibition,[13],40%
same,inhibition,[14],100%
same,inhibition,[15],51%
same,inhibition,[16],100%
same,inhibition,[17],80%
same,inhibition,[18],7.5%
same,inhibition,[19],97%
same,inhibition,[20],68%
same,residual activity,[21],84%
same,residual activity,[22],84%
same,residual activity,[23],93%
same,residual activity,[24],67%
same,residual activity,[25],93%
same,residual activity,[26],69%
same,residual activity,[27],72%
same,residual activity,[28],70%
same,residual activity,[29],84%

# From ChEMBL document CHEMBL5678810
